Test results: PubChem BioAssay (NCI)
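Where inhibition never reached the appropriate level, the endpoint shown equals the highest concentration tested. Otherwise, values were interpolated linearly from a five-concentration, 48-hour dose response in 96-well plates. Definition used: TGI = concentration required for complete inhibition of growth.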

Legend:
Assay in all cases: NCI-60 cell line screen, 48 h
SK-MEL-28 melanoma = test system: SK-MEL-28 melanoma
SW-620 colon = test system: SW-620 colon
K-562 leukemia = test system: K-562 leukemia
SF-295 CNS = test system: SF-295 CNS
TK-10 renal = test system: TK-10 renal
MDA-N = test system: MDA-N
786-0 renal = test system: 786-0 renal
BT-549 breast = test system: BT-549 breast
CCRF-CEM leukemia = test system: CCRF-CEM leukemia
M14 melanoma = test system: M14 melanoma
SR leukemia = test system: SR leukemia
T-47D breast = test system: T-47D breast
RXF 393 renal = test system: RXF 393 renal
HT29 colon = test system: HT29 colon
UACC-257 melanoma = test system: UACC-257 melanoma
CAKI-1 renal = test system: CAKI-1 renal

Row | SMILES | TGI (SK-MEL-28 melanoma) | TGI (SW-620 colon) | TGI (K-562 leukemia) | TGI (SF-295 CNS) | TGI (TK-10 renal) | TGI (MDA-N) | TGI (786-0 renal) | TGI (BT-549 breast) | TGI (CCRF-CEM leukemia) | TGI (M14 melanoma) | TGI (SR leukemia) | TGI (T-47D breast) | TGI (RXF 393 renal) | TGI (HT29 colon) | TGI (UACC-257 melanoma) | TGI (CAKI-1 renal)
1 | COc1cc(-c2oc(C=Nc3ccccc3)c([N+](=O)[O-])c2-c2ccc(O)c(OC)c2)ccc1O | 68.7 µM | > 85.3 µM | > 100 µM | > 95.7 µM | 39.5 µM | > 85.7 µM | > 58.3 µM | > 100 µM | > 100 µM | > 100 µM | 9.8 µM | > 100 µM | 51.1 µM | > 55.9 µM | > 73.6 µM | 47.2 µM
2 | O=C(OC(/C=C/c1ccccc1)P1(=O)N(Cc2ccccc2)[C@@H]2CCCC[C@H]2N1Cc1ccccc1)c1ccccc1 (stereo partly specified) | > 100 µM | > 100 µM | > 100 µM | > 100 µM | > 100 µM | > 100 µM | > 100 µM | > 55.8 µM | 7.88 µM | > 100 µM | 15.2 µM | > 100 µM | > 100 µM | > 100 µM | > 54.7 µM | > 100 µM
3 | CCN(CC)CCC(=O)c1ccc(Oc2ccccc2)cc1 | 32.5 µM | 31.3 µM | > 100 µM | > 100 µM | 27.5 µM | 30.1 µM | 29.3 µM | 33.5 µM | 51.3 µM | > 100 µM | > 100 µM | 42 µM | 36.4 µM | 38.3 µM | 33.5 µM | 30.7 µM
4 | C/C1=C\CC/C(C)=C/C=C(/C(C)C)CC/C(C(=O)O)=C/CC1 | > 100 µM | > 100 µM | > 100 µM | 78.3 µM | > 100 µM | > 100 µM | > 100 µM | > 100 µM | > 100 µM | > 100 µM | > 100 µM | 75.6 µM | > 100 µM | > 100 µM | > 100 µM | > 100 µM
5 | N#C/C(=C\c1ccc(Br)cc1)c1nc(-c2cc3ccccc3oc2=O)cs1 | > 50 µM | > 50 µM | > 50 µM | > 50 µM | 22.9 µM | > 50 µM | > 50 µM | 14.5 µM | > 50 µM | > 50 µM | > 50 µM | > 50 µM | > 50 µM | > 50 µM | 33.2 µM | > 50 µM
6 | Clc1ccc(-c2nc3ccc(C45CC6CC(CC(C6)C4)C5)cc3[nH]2)cc1 | > 100 µM | > 100 µM | 0.0221 µM | > 100 µM | 98.9 µM | > 100 µM | > 100 µM | 98.3 µM | > 100 µM | > 100 µM | > 100 µM | > 100 µM | > 100 µM | > 100 µM | > 65.7 µM | > 100 µM
